Values quoted from earlier work as cited in US20090226465A1, “MACROCYCLIC DEPSIPEPTIDE ANTIBODY-DRUG CONJUGATES AND METHODS” (priority 2005, published 2009).
*1 amine or outer side, *2 acyl side, *3 side chain or, on linkers, in order; H or OH if unused. Where a SMILES comes first, the peptide text is derived from it. Bridges are numbered along the chain shown (N, C = ends). [ ]: non-standard residue; d: D form. The star is where a group is joined. X1 = CC[C@H](C)[C@@H](N[*:1])[C@@H](O)CC(=O)O[C@H](C(=O)[C@H](C)C(=O)[*:2])C(C)C; NMeY = CN[C@@H](Cc1ccc(O)cc1)C(=O)O; dNMeL = CN[C@H](CC(C)C)C(=O)O; Pyruvoyl = CC(=O)C(=O)*

Assays:
[1] = test system: panel of solid tumor cell lines; conditions: read-out: in vitro IC50

For CC[C@H](C)[C@H]1NC(=O)[C@@H](NC(=O)[C@@H](CC(C)C)N(C)C(=O)[C@@H]2CCCN2C(=O)C(C)=O)[C@@H](C)OC(=O)[C@H](Cc2ccc(OC)cc2)N(C)C(=O)[C@@H]2CCCN2C(=O)[C@H](CC(C)C)NC(=O)[C@@H](C)C(=O)[C@H](C(C)C)OC(=O)C[C@@H]1O [Aplidin] (Pyruvoyl-P[dNMeL]T[X1]LP[NMeY](Me); ester 3-C), the “half life in plasma” value is listed as 4 to 7 h and the IC50 [1] is listed as 1 to 100 nM.
